Experimental data as given in patent US5055470A, “Method of treatment of ischemia in brain” (Bristol-Myers Squibb Co., priority 1989, dated 1991).

Key:
[1] = system: hypoxia-induced death; assay: Protection against hypoxia-induced death (1-minute exposure to 100% nitrogen atmosphere); assay type: in vivo; conditions: rats
Protocol: Groups of rats received either water or drug solution in various doses given i.p. at specified times prior to a 1-minute exposure to a 100% nitrogen atmosphere. This 1-minute nitrogen exposure is lethal within 10 minutes to all animals receiving only vehicle. A 25 mg/kg treatment given 15 minutes before nitrogen exposure protected 3 of 8 animals while giving 50 mg/kg protected all animals.

[2] = system: NMDA-evoked release of acetylcholine, rat striatal brain tissue slices; assay: Antagonism of NMDA-evoked release of tritiated acetylcholine from striatal slices; assay type: cell-based; conditions: rat striatal slices preloaded with tritiated choline; 0.5 mM NMDA; 50 μM compound
Protocol: Slices of rat striatal brain tissue were preloaded with tritiated choline and the release of tritiated acetylcholine evoked by NMDA in the presence or absence of BMY 14802 hydrochloride is measured.

## OC(CCCN1CCN(c2ncc(F)cn2)CC1)c1ccc(F)cc1 (stereo not shown) [BMY 14802, 4-[4-(5-fluoro-2-pyrimidinyl)-1-piperazinyl]-1-(4-fluorophenyl)butanol]
[1]; 25 mg/kg i.p. 15 minutes before nitrogen exposure
  animals protected from hypoxia-induced death: 3 of 8
[1]; 25 mg/kg i.p. 30 minutes before nitrogen exposure
  animals protected from hypoxia-induced death: 4 of 8
[1]; 25 mg/kg i.p. 60 minutes before nitrogen exposure
  animals protected from hypoxia-induced death: no protection
[1]; 50 mg/kg i.p. 15 minutes before nitrogen exposure
  animals protected from hypoxia-induced death: all animals
[1]; 50 mg/kg i.p. 30 minutes before nitrogen exposure
  animals protected from hypoxia-induced death: 3 of 8
[1]; 50 mg/kg i.p. 60 minutes before nitrogen exposure
  animals protected from hypoxia-induced death: 2 of 8
[2]
  attenuation of acetylcholine release evoked by NMDA: significant attenuation
